Assays:
barnyardgrass = experiment: Test C flood test plant response rating 0 to 100; assay type: in vivo, Echinochloa crus-galli; details: for Plant response rating (0 to 100), Barnyardgrass / Plant response rating (0 to 100), Barnyardgrass 2: under POSTEMERGENCE head (flood test species); for Plant response rating, Barnyardgrass / Plant response rating Barnyardgrass 2: flood test species listed under POSTEMERGENCE, 0 to 100 scale
Text: (§1) The compounds evaluated in this test were formulated in a non-phytoxic solvent and applied to the soil surface before plant seedlings emerged (preemergence application), to water that covered the soil surface (flood application), and to plants that were in the one-to-four leaf stage (postemergence application). A sandy loam soil was used for the preemergence and postemergence tests, while a silt loam soil was used in the flood test. Water depth was approximately 2.5 cm for the flood test and was maintained at this level for the duration of the test. Plant species in the preemergence and postemergence tests consisted of barley (Hordeum vulgare), bedstraw (Galium aparine), blackgrass (Alopecurus myosuroides), chickweed (Stellaria media), corn (Zea mays), cotton (Gossypium hirsutum), crabgrass (Digitaria sanguinalis), downy brome (Bromus tectorum), giant foxtail (Setaria faberii), lambsquarters (Chenopodium album), morningglory (Ipomoea hederacea), pigweed ([…]), rape (Brassica napus), ryegrass (Lolium multiflorum), sorghum (Sorghum bicolor), soybean (Glycine max), speedwell (Veronica persica), sugar beet (Beta vulgaris), velvetleaf (Abutilon theophrasti), wheat (Triticum aestivum), wild buckwheat (Polygonum convolvulus), and wild oat (Avena fatua). All plant species were planted one day before application of the compound for the preemergence portion-of this test. Plantings of these species were adjusted to produce plants of appropriate size for the post-emergence portion of the test. […] All plant species were grown using normal greenhouse practices. Visual evaluations of injury expressed on treated plants, when compared to untreated controls, were recorded approximately fourteen to twenty one days after application of the test compound. […] A dash (-) response means no test result.

blackgrass = experiment: Test C preemergence/postemergence greenhouse plant response rating 0 to 100; assay type: in vivo, Alopecurus myosuroides; details: POSTEMERGENCE; for Plant response rating, Blackgrass: 0 to 100 scale
Text: as §1

lambsquarters = experiment: Test B preemergence/postemergence greenhouse plant response rating 0 to 10; assay type: in vivo, Chenopodium album; details: 0 to 10 scale
How it was run: (§2)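 Both application timings were run together: seeds got compound preemergence, and established seedlings (two to eighteen cm) got it postemergence. Non-phytotoxic solvent carried the chemical. Ratings are visual, versus controls, at twelve to sixteen days.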

wild oat = experiment: as above; assay type: in vivo, Avena fatua; details: 0 to 10 scale
How it was run: as §2

rice = experiment: as above; assay type: in vivo, Oryza sativa; details: 0 to 10 scale
How it was run: as §2

wild buckwheat [1] = experiment: as above; assay type: in vivo, Polygonum convolvulus; details: 0 to 10 scale
How it was run: as §2

wheat = experiment: as above; assay type: in vivo, Triticum aestivum; details: 0 to 10 scale
How it was run: as §2

wild buckwheat [2] = experiment: Test C preemergence/postemergence greenhouse plant response rating 0 to 100; assay type: in vivo, Polygonum convolvulus; details: POSTEMERGENCE; for Plant response rating, Wild buckwheat: 0 to 100 scale
Text: as §1

sugar beet = experiment: as above; assay type: in vivo, Beta vulgaris; details: POSTEMERGENCE; for Plant response rating, Sugar beet: 0 to 100 scale
Text: as §1

downy brome = experiment: as above; assay type: in vivo, Bromus tectorum; details: POSTEMERGENCE; for Plant response rating Downy Brome: 0 to 100 scale
Text: as §1

sorghum = experiment: as above; assay type: in vivo, Sorghum bicolor; details: POSTEMERGENCE; for Plant response rating, Sorghum: 0 to 100 scale
Text: as §1

soybean = experiment: Test B preemergence/postemergence greenhouse plant response rating 0 to 10; assay type: in vivo, Glycine max; details: 0 to 10 scale
How it was run: as §2

C=CCN1C(=O)COc2cc(F)c(-c3nn4c(c3Br)CCCC4)cc21 [Compound 41]
Plant response rating (0 to 100), Barnyardgrass (barnyardgrass; Rate 16 g/ha): 90 | Plant response rating (0 to 100), Barnyardgrass (barnyardgrass; Rate 31 g/ha): 100 | Plant response rating, Barnyardgrass (barnyardgrass; 62 g/ha): 100 | Plant response rating, Barnyardgrass (barnyardgrass; 125 g/ha): 100 | Plant response rating, Blackgrass (blackgrass; 62 g/ha): 50 | Plant response rating, Blackgrass (blackgrass; 125 g/ha): 60 | Plant response rating (0 to 100), Blackgrass (blackgrass; Rate 16 g/ha): 40 | Plant response rating (0 to 100), Blackgrass (blackgrass; Rate 31 g/ha): 40 | Plant response rating, Lambsquarter (lambsquarters; POSTEMERGENCE, Rate 50 g/ha): 10 | Plant response rating, Lambsquarter (lambsquarters; PREEMERGENCE, Rate 50 g/ha): 10 | Plant response rating, Lambsquarter (lambsquarters; Rate 200 g/ha, POSTEMERGENCE): 10 | Plant response rating, Lambsquarter (lambsquarters; Rate 200 g/ha, PREEMERGENCE): 10 | Plant response rating, Wild oat (wild oat; POSTEMERGENCE, Rate 50 g/ha): 3 | Plant response rating, Wild oat (wild oat; PREEMERGENCE, Rate 50 g/ha): 2 | Plant response rating, Wild oat (wild oat; Rate 200 g/ha, POSTEMERGENCE): 4 | Plant response rating, Rice (rice; POSTEMERGENCE, Rate 50 g/ha): 6 | Plant response rating, Rice (rice; PREEMERGENCE, Rate 50 g/ha): 0 | Plant response rating, Rice (rice; Rate 200 g/ha, POSTEMERGENCE): 7 | Plant response rating, Rice (rice; Rate 200 g/ha, PREEMERGENCE): 0 | Plant response rating, Wild buckwheat (wild buckwheat [1]; POSTEMERGENCE, Rate 50 g/ha): 10 | Plant response rating, Wild buckwheat (wild buckwheat [1]; PREEMERGENCE, Rate 50 g/ha): 10 | Plant response rating, Wild buckwheat (wild buckwheat [1]; Rate 200 g/ha, POSTEMERGENCE): 10 | Plant response rating, Wild buckwheat (wild buckwheat [1]; Rate 200 g/ha, PREEMERGENCE): 10 | Plant response rating, Wheat (wheat; POSTEMERGENCE, Rate 50 g/ha): 5 | Plant response rating, Wheat (wheat; PREEMERGENCE, Rate 50 g/ha): 1 | Plant response rating, Wheat (wheat; Rate 200 g/ha, POSTEMERGENCE): 5 | Plant response rating, Wheat (wheat; Rate 200 g/ha, PREEMERGENCE): 3 | Plant response rating, Wild buckwheat (wild buckwheat [2]; 62 g/ha): 100 | Plant response rating, Wild buckwheat (wild buckwheat [2]; 125 g/ha): 100 | Plant response rating (0 to 100), Wild buckwheat (wild buckwheat [2]; Rate 16 g/ha): 95 | Plant response rating (0 to 100), Wild buckwheat (wild buckwheat [2]; Rate 31 g/ha): 100 | Plant response rating, Sugar beet (sugar beet; 62 g/ha): 100 | Plant response rating, Sugar beet (sugar beet; 125 g/ha): 100 | Plant response rating (0 to 100), Sugar beet (sugar beet; Rate 16 g/ha): 100 | Plant response rating (0 to 100), Sugar beet (sugar beet; Rate 31 g/ha): 100 | Plant response rating Downy Brome (downy brome; 62 g/ha): 50 | Plant response rating Downy Brome (downy brome; 125 g/ha): 60 | Plant response rating (0 to 100), Downy Brome (downy brome; Rate 16 g/ha): 30 | Plant response rating (0 to 100), Downy Brome (downy brome; Rate 31 g/ha): 40 | Plant response rating, Sorghum (sorghum; 62 g/ha): 40 | Plant response rating, Sorghum (sorghum; 125 g/ha): 50 | Plant response rating (0 to 100), Sorghum (sorghum; Rate 16 g/ha): 20 | Plant response rating (0 to 100), Sorghum (sorghum; Rate 31 g/ha): 30 | Plant response rating, Soybean (soybean; POSTEMERGENCE, Rate 50 g/ha): 9 | Plant response rating, Soybean (soybean; PREEMERGENCE, Rate 50 g/ha): 0 | Plant response rating, Soybean (soybean; Rate 200 g/ha, POSTEMERGENCE): 10 | Plant response rating, Soybean (soybean; Rate 200 g/ha, PREEMERGENCE): 0

CCOC(=O)COc1cc(-c2nn3c(c2Cl)CCCC3)c(F)cc1Cl [Compound 42]
Plant response rating (0 to 100), Barnyardgrass 2 (barnyardgrass; Rate 16 g/ha): 0 | Plant response rating (0 to 100), Barnyardgrass 2 (barnyardgrass; Rate 31 g/ha): 20 | Plant response rating Barnyardgrass 2 (barnyardgrass; 62 g/ha): 40 | Plant response rating Barnyardgrass 2 (barnyardgrass; 125 g/ha): 60 | Plant response rating, Blackgrass (blackgrass; 62 g/ha): 30 | Plant response rating, Blackgrass (blackgrass; 125 g/ha): 30 | Plant response rating (0 to 100), Blackgrass (blackgrass; Rate 16 g/ha): 10 | Plant response rating (0 to 100), Blackgrass (blackgrass; Rate 31 g/ha): 20 | Plant response rating, Lambsquarter (lambsquarters; POSTEMERGENCE, Rate 50 g/ha): 9 | Plant response rating, Lambsquarter (lambsquarters; PREEMERGENCE, Rate 50 g/ha): 9 | Plant response rating, Lambsquarter (lambsquarters; Rate 200 g/ha, POSTEMERGENCE): 10 | Plant response rating, Lambsquarter (lambsquarters; Rate 200 g/ha, PREEMERGENCE): 10 | Plant response rating, Wild oat (wild oat; POSTEMERGENCE, Rate 50 g/ha): 1 | Plant response rating, Wild oat (wild oat; PREEMERGENCE, Rate 50 g/ha): 0 | Plant response rating, Wild oat (wild oat; Rate 200 g/ha, POSTEMERGENCE): 3 | Plant response rating, Rice (rice; POSTEMERGENCE, Rate 50 g/ha): 4 | Plant response rating, Rice (rice; PREEMERGENCE, Rate 50 g/ha): 0 | Plant response rating, Rice (rice; Rate 200 g/ha, POSTEMERGENCE): 6 | Plant response rating, Rice (rice; Rate 200 g/ha, PREEMERGENCE): 2 | Plant response rating, Wild buckwheat (wild buckwheat [1]; POSTEMERGENCE, Rate 50 g/ha): 9 | Plant response rating, Wild buckwheat (wild buckwheat [1]; PREEMERGENCE, Rate 50 g/ha): 0 | Plant response rating, Wild buckwheat (wild buckwheat [1]; Rate 200 g/ha, POSTEMERGENCE): 9 | Plant response rating, Wild buckwheat (wild buckwheat [1]; Rate 200 g/ha, PREEMERGENCE): 7 | Plant response rating, Wheat (wheat; POSTEMERGENCE, Rate 50 g/ha): 2 | Plant response rating, Wheat (wheat; PREEMERGENCE, Rate 50 g/ha): 0 | Plant response rating, Wheat (wheat; Rate 200 g/ha, POSTEMERGENCE): 5 | Plant response rating, Wheat (wheat; Rate 200 g/ha, PREEMERGENCE): 0 | Plant response rating, Wild buckwheat (wild buckwheat [2]; 62 g/ha): 100 | Plant response rating, Wild buckwheat (wild buckwheat [2]; 125 g/ha): 100 | Plant response rating (0 to 100), Wild buckwheat (wild buckwheat [2]; Rate 16 g/ha): 60 | Plant response rating (0 to 100), Wild buckwheat (wild buckwheat [2]; Rate 31 g/ha): 70 | Plant response rating, Sugar beet (sugar beet; 62 g/ha): 100 | Plant response rating, Sugar beet (sugar beet; 125 g/ha): 100 | Plant response rating (0 to 100), Sugar beet (sugar beet; Rate 16 g/ha): 100 | Plant response rating (0 to 100), Sugar beet (sugar beet; Rate 31 g/ha): 100 | Plant response rating Downy Brome (downy brome; 62 g/ha): 30 | Plant response rating Downy Brome (downy brome; 125 g/ha): 50 | Plant response rating (0 to 100), Downy Brome (downy brome; Rate 16 g/ha): 20 | Plant response rating (0 to 100), Downy Brome (downy brome; Rate 31 g/ha): 30 | Plant response rating, Sorghum (sorghum; 62 g/ha): 60 | Plant response rating, Sorghum (sorghum; 125 g/ha): 70 | Plant response rating (0 to 100), Sorghum (sorghum; Rate 16 g/ha): 40 | Plant response rating (0 to 100), Sorghum (sorghum; Rate 31 g/ha): 50 | Plant response rating, Soybean (soybean; POSTEMERGENCE, Rate 50 g/ha): 4 | Plant response rating, Soybean (soybean; PREEMERGENCE, Rate 50 g/ha): 0 | Plant response rating, Soybean (soybean; Rate 200 g/ha, POSTEMERGENCE): 5 | Plant response rating, Soybean (soybean; Rate 200 g/ha, PREEMERGENCE): 0
